Reference: patent US12599560B2, “Lipids and lipid nanoparticle formulations” (Longuide Biopharma Corporation, priority 2023, dated 2026)

Tests used:
mice = test: In vivo delivery of FLuc-mRNA lipid nanoparticle preparations in mice (IVIS imaging); set-up: In vivo IVIS / In vivo IVIS (liver) / In vivo IVIS (spleen): unit not given here; details: for in vivo delivery efficiency as compared to the benchmark compound SM102: certain formulations
Summary of the method: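 FLuc-mRNA LNPs given intramuscularly into thigh rectus femoris or intravenously via tail vein, about 75 μL per mouse, 3 mice. D-Luciferin (200 μL, 15 mg/mL) injected i.p. 10–15 min before IVIS imaging at set times after dosing.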

[1] = Particle size and PDI by dynamic light scattering; format: physicochemical
Summary of the method: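 Lipid nanoparticle solution (about 0.04 mg/mL mRNA) diluted in ultrapure water and particle size measured by dynamic light scattering on a Malvern instrument. Sample then further diluted with water for potential measurement.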

Delta-S protein = test: In vivo immunization with Delta Spike mRNA LNP, serum ELISA for specific antibody; set-up: species or system mice; details: serum after second administration
Procedure: Lipid nanoparticles encapsulating the nucleic acid drugs were prepared according to step 2. The mRNA was replaced with Delta Spike full length mRNA (Shanghai Zhaowei Science and Technology Development Co., Ltd.) and then administered to the mice at a dose of 5 μg per mouse, and on the 14th day after the first immunization, the whole blood of the mice was collected by canthus sampling, and the drug administration was repeated for the second immunization. On the 14th day after the second immunization, the whole blood was collected from mice by canthus sampling. The whole blood was centrifuged at 5000 rcf for 5 mn, and the supernatant was centrifuged at 10000 rcf for 5 min to obtain the serum, which was aliquated into serial tubes and stored in the refrigerator at −20° C.
• 9.2.1 Coating: Add 100 μL of 0.2 μg/100 μL Delta-S protein (Novoprotein Scientific Inc.) dilution solution to each well, and leave it in the refrigerator at 4° C. overnight. • 9.2.2 Washing: Add 200 μL of PBST (PBS buffer solution containing 0.05% Tween-20 at pH 7.4) to each well and wash three times. • 9.2.3 Blocking: Add 200 μL of 5% (w/v) BSA-PBS solution (BSA bovine serum albumin, Bioss Biotechnology Co., Ltd.) to each well, and shake for 2 h at 50 rcf at room temperature using a shaker. • 9.2.4 Washing: Add 200 μL of PBST to each well to wash once. • 9.2.5 Adding samples: Add 100 μL of serum diluted 200 times with PBS (0.5 μL of serum) to each well (for the ELISA titer assay, serum diluted 200 times, 800 times, 3200 times, 12800 times, 51200 times, 204800 times), and shake at room temperature for 2 h at 50 rcf using a shaker. • 9.2.6 Washing: Add 200 μL of PBST into each well for three times. • 9.2.7 Adding detection antibody: Add 100 μL of HRP-labeled goat anti-mouse IgG detection antibody (0.1 μL of antibody master batch) (Sangon Biotech (Shanghai) Co., Ltd.) diluted 1000-fold into each well, and shake at 50 rcf for 1 h at room temperature using a shaker. • 9.2.8 Washing: Add 200 μL of PBST to each well and wash three times. • 9.2.9 Adding TMB (Beijing Solarbio Science & Technology Co., Ltd.): Add 50 μL of TMB mixture with the volume ratio of liquid A:liquid B of 1:1 to each well, and react for 5 mn (ELISA of blood sample I), 7 min 58 sec (ELISA of blood sample II), and react for about 5 min (ELISA titer of blood sample II). • 9.2.10 Adding phosphate (Aladdin Reagent (Shanghai) Co., Ltd.): add 50 μL of 1 mol/L phosphate per well to terminate the reaction. • 9.2.11 Detection: Use multi-function plate reader for detection. 9.3. Neutralization Antibody Levels Detected by Pseudovirus Neutralization Assay • 9.3.1 Cell seeding: 293T-ACE2 cells (Fubio (Suzhou) Biomedical Technology Co., Ltd.) were inoculated with 1×10^5 cells in each well of a 48-well plate at a concentration of 1×10^5 cells in 300 μL of DMEM medium (containing 10% heat-inactivated FBS without bispecific antibody), the 48-well plate was labeled with information such as “number, cell type, number of generations, medium type, date and name”, and then the cells were cultured in a cell culture incubator at 37° C. with 5% CO2 for 18 hours. • 9.3.2 Before the pseudovirus transfection operation, prepare an ice box, re-dissolve the serum to be used on ice, thaw on ice the virus from the −25° C. refrigerator. After thawing, the serum and pseudovirus were flicked homogenously and centrifuged with a palm centrifuge. • 9.3.3 Examine the neutralization antibody with serum diluted in different ratios: use complete culture medium to dilute the pseudovirus (Fubio (Suzhou) Biomedical Technology Co., Ltd.) and mouse serum respectively, mix them well, and then dilute them 40-fold, 100-fold, 250-fold and 625-fold according to the final concentration of the cells of incubation. […]

[2] = Table 2, IV, whole body scan, molar ratio DMG-PEG2000:DSPC:Chol:Lipid and N/P
[3] = Table 2, LNP formulation with mRNA
[4] = Table 4, molar ratio 1.40:11.15:38.95:48.50, N/P 40, IM formulation
[5] = Table 4, molar ratio 1.50:16.00:34.00:48.50, N/P 55, IV formulation

## CCCCCCC(CCCCCC)C(=O)OCCCCOC(=O)C(O)CN1CCN(CCN(CC(O)C(=O)OCCCCOC(=O)C(CCCCCC)CCCCCC)CC(O)C(=O)OCCCCOC(=O)C(CCCCCC)CCCCCC)CC1 (stereo not drawn) [Compound L0186]
mice; Table 2, IM, whole body scan
  In vivo IVIS: 1.58 × 10^8
mice; Table 2, IV
  In vivo IVIS (liver): 5.61 × 10^7
  In vivo IVIS (spleen): 2.65 × 10^7
mice; [2]
  In vivo IVIS: 2.77 × 10^8
mice; Table 2
  in vivo delivery efficiency as compared to the benchmark compound SM102: superior in vivo delivery efficiency
[1]; [3]
  Particle size (nm): 89.99 ± 0.58 nm
[1]; Table 2, polydispersity value
  PDI: 0.12 ± 0.00
Delta-S protein; IM
  OD 450 nm-630 nm: 1.70

## CCCCCCC(CCCCCC)C(=O)OCCCCCCOC(=O)C(O)CN1CCN(CCN(CC(O)C(=O)OCCCCCCOC(=O)C(CCCCCC)CCCCCC)CC(O)C(=O)OCCCCCCOC(=O)C(CCCCCC)CCCCCC)CC1 (stereo not drawn) [Compound L0187]
mice; Table 2, IM, whole body scan
  In vivo IVIS: 9.72 × 10^7
mice; Table 2, IV
  In vivo IVIS (liver): 2.46 × 10^7
  In vivo IVIS (spleen): 2.00 × 10^7
mice; [2]
  In vivo IVIS: 1.11 × 10^8
mice; Table 2
  in vivo delivery efficiency as compared to the benchmark compound SM102: superior in vivo delivery efficiency
[1]; [3]
  Particle size (nm): 80.11 ± 0.17 nm
[1]; Table 2, polydispersity value
  PDI: 0.12 ± 0.01
Delta-S protein; IM
  OD 450 nm-630 nm: 1.70

## CCCCCCOCOCCCCCCOC(=O)C(O)CN(CCCN1CCN(CCCN(CC(O)C(=O)OCCCCCCOCOCCCCCC)CC(O)C(=O)OCCCCCCOCOCCCCCC)CC1)CC(O)C(=O)OCCCCCCOCOCCCCCC (stereo not drawn) [Compound L0192]
mice; [2]
  In vivo IVIS: 5.56 × 10^10
mice; Table 2
  in vivo delivery efficiency as compared to the benchmark compound SM102: superior in vivo delivery efficiency
[1]; Table 2, LNP formulation with mRNA, molar ratio 1.50:4.00:59.50:35.00, N/P 65
  Particle size (nm): 112.83 ± 0.31 nm
[1]; Table 2, LNP formulation with mRNA, molar ratio 1.77:14.07:49.16:35.00, N/P 54
  Particle size (nm): 96.59 ± 0.78 nm
[1]; Table 2, LNP formulation with mRNA, molar ratio 1.77:14.07:59.16:25.00, N/P 52
  Particle size (nm): 113.33 ± 1.07 nm
[1]; Table 2, polydispersity value, molar ratio 1.50:4.00:59.50:35.00, N/P 65
  PDI: 0.15 ± 0.01
[1]; Table 2, polydispersity value, molar ratio 1.77:14.07:49.16:35.00, N/P 54
  PDI: 0.08 ± 0.02
[1]; Table 2, polydispersity value, molar ratio 1.77:14.07:59.16:25.00, N/P 52
  PDI: 0.11 ± 0.02
Delta-S protein; IM
  OD 450 nm-630 nm: 1.68

## CCCCCCCCCCCCOC(=O)C(O)CN(CCN1CCN(CCN(CC(O)C(=O)OCCCCCCCCCCCC)CC(O)C(=O)OCCCCCCCCCCCC)CC1)CCN(CC(O)C(=O)OCCCCCCCCCCCC)CC(O)C(=O)OCCCCCCCCCCCC (stereo not drawn) [Compound L0199]
mice; Table 2, IM, whole body scan
  In vivo IVIS: 2.19 × 10^7
mice; [2]
  In vivo IVIS: 1.07 × 10^9
mice; Table 4, IM
  In vivo IVIS: 5.93 × 10^6
mice; Table 4, IV
  In vivo IVIS: 9.35 × 10^8
mice; Table 2
  in vivo delivery efficiency as compared to the benchmark compound SM102: superior in vivo delivery efficiency
[1]; Table 2, LNP formulation with mRNA, molar ratio 1.40:11.15:38.95:48.50, N/P 40
  Particle size (nm): 97.65 ± 0.59 nm
[1]; Table 2, LNP formulation with mRNA, molar ratio 2.50:7.00:42.00:48.50, N/P 55
  Particle size (nm): 130.00 ± 1.47 nm
[1]; Table 2, polydispersity value, molar ratio 1.40:11.15:38.95:48.50, N/P 40
  PDI: 0.11 ± 0.01
[1]; Table 2, polydispersity value, molar ratio 2.50:7.00:42.00:48.50, N/P 55
  PDI: 0.12 ± 0.01
[1]; [4]
  PDI: 0.09 ± 0.02
  Particle size (nm): 123.50 ± 0.36 nm
[1]; [5]
  PDI: 0.10 ± 0.02
  Particle size (nm): 147.57 ± 1.17 nm
Delta-S protein; IV
  OD 450 nm-630 nm: 1.52

## CCCCCCOCOCCCCCCOC(=O)C(O)CN(CCN1CCN(CCN(CC(O)C(=O)OCCCCCCOCOCCCCCC)CC(O)C(=O)OCCCCCCOCOCCCCCC)CC1)CCN(CC(O)C(=O)OCCCCCCOCOCCCCCC)CC(O)C(=O)OCCCCCCOCOCCCCCC (stereo not drawn) [Compound L0200]
mice; Table 2, IM, whole body scan
  In vivo IVIS: 3.08 × 10^5
mice; Table 2
  in vivo delivery efficiency as compared to the benchmark compound SM102: superior in vivo delivery efficiency
[1]; Table 2, LNP formulation with mRNA, molar ratio 1.00:7.00:57.00:35.00, N/P 35
  Particle size (nm): 106.93 ± 0.71 nm
[1]; Table 2, LNP formulation with mRNA, molar ratio 1.40:11.15:38.95:48.50, N/P 65
  Particle size (nm): 117.90 ± 0.36 nm
[1]; Table 2, LNP formulation with mRNA, molar ratio 2.00:16.00:22.00:60.00, N/P 35
  Particle size (nm): 104.50 ± 0.26 nm
[1]; Table 2, polydispersity value, molar ratio 1.00:7.00:57.00:35.00, N/P 35
  PDI: 0.06 ± 0.01
[1]; Table 2, polydispersity value, molar ratio 1.40:11.15:38.95:48.50, N/P 65
  PDI: 0.08 ± 0.02
[1]; Table 2, polydispersity value, molar ratio 2.00:16.00:22.00:60.00, N/P 35
  PDI: 0.12 ± 0.01
Delta-S protein; IV
  OD 450 nm-630 nm: 1.61

## CCCCCCC(CCCCCC)C(=O)OCCCCCCOC(=O)C(O)CN(CCN1CCN(CCN(CC(O)C(=O)OCCCCCCOC(=O)C(CCCCCC)CCCCCC)CC(O)C(=O)OCCCCCCOC(=O)C(CCCCCC)CCCCCC)CC1)CCN(CC(O)C(=O)OCCCCCCOC(=O)C(CCCCCC)CCCCCC)CC(O)C(=O)OCCCCCCOC(=O)C(CCCCCC)CCCCCC (stereo not drawn) [Compound L0203]
mice; Table 2, IM, whole body scan
  In vivo IVIS: 8.01 × 10^7
mice; [2]
  In vivo IVIS: 3.89 × 10^8
mice; Table 2
  in vivo delivery efficiency as compared to the benchmark compound SM102: superior in vivo delivery efficiency
[1]; [3]
  Particle size (nm): 126.73 ± 1.50 nm
[1]; Table 2, polydispersity value
  PDI: 0.06 ± 0.01
Delta-S protein; IM
  OD 450 nm-630 nm: 1.72

## CCCCCCCCCCCCOC(=O)CCN(CCC(=O)OCCCCCCCCCCCC)CCN(CCC(=O)OCCCCCCCCCCCC)CCN1CCN(CCN(CCC(=O)OCCCCCCCCCCCC)CCC(=O)OCCCCCCCCCCCC)CC1 [L0199-Control, reference compound]
mice; IM administration
  delivery efficiency, times lower than the hydroxy compound (L0191 or L0199): slightly lower
mice; IV administration
  delivery efficiency, times lower than the hydroxy compound (L0191 or L0199): about 44 times
mice; Table 4, IM
  In vivo IVIS: 5.84 × 10^6
mice; Table 4, IV
  In vivo IVIS: 2.12 × 10^7
[1]; [4]
  PDI: 0.17 ± 0.02
  Particle size (nm): 133.43 ± 1.86 nm
[1]; [5]
  PDI: 0.16 ± 0.03
  Particle size (nm): 144.33 ± 0.31 nm

## CCCCCCCCCCCOC(=O)CCCCCN(CCO)CCCCCCCC(=O)OC(CCCCCCCC)CCCCCCCC [SM-102, reference compound]
mice; [2]
  In vivo IVIS: 1.40 × 10^9
[1]; [3]
  Particle size (nm): 81.71 ± 0.49 nm
[1]; Table 2, polydispersity value
  PDI: 0.11 ± 0.01
Delta-S protein; IM
  OD 450 nm-630 nm: 1.64
